In ChEMBL document CHEMBL5614387, “Discovery of 2,4,6-trisubstituted pyrimidine derivatives as novel potent HIV-1 NNRTIs by exploiting the tolerant region II of the NNIBP” (Eur J Med Chem, 2024):

Key:
[1] = test system: Human immunodeficiency virus 1; assay: Antiviral activity against HIV-1 harboring RT RES056 mutant infected in human MT4 cells assessed as protection against virus-induced cytopathic effect by MTT assay; type: functional, organism-based; settings: Human immunodeficiency virus 1, MT4
[2] = Selectivity index, ratio of CC50 for human MT4 cells to EC50 for wild-type HIV-1 IIIB infected in human MT4 cells; type: toxicity, cell-based; settings: read-out: Ratio CC50/EC50
[3] = test system: Human immunodeficiency virus 1; assay: Antiviral activity against HIV-1 harboring RT Y188L mutant infected in human MT4 cells assessed as protection against virus-induced cytopathic effect by MTT assay; type: functional, organism-based; settings: Human immunodeficiency virus 1, MT4
[4] = test system: Human immunodeficiency virus 1; assay: Antiviral activity against HIV-1 harboring RT Y181C mutant infected in human MT4 cells assessed as protection against virus-induced cytopathic effect by MTT assay; type: functional, organism-based; settings: Human immunodeficiency virus 1, MT4
[5] = test system: Human immunodeficiency virus 1; assay: Antiviral activity against HIV-1 harboring RT E138K mutant infected in human MT4 cells assessed as protection against virus-induced cytopathic effect by MTT assay; type: functional, organism-based; settings: Human immunodeficiency virus 1, MT4
[6] = test system: Human immunodeficiency virus 1; assay: Antiviral activity against HIV-1 harboring RT L100I mutant infected in human MT4 cells assessed as protection against virus-induced cytopathic effect by MTT assay; type: functional, organism-based; settings: Human immunodeficiency virus 1, MT4
[7] = Cytotoxicity against human MT4 cells assessed as reduction in cell viability by MTT assay; type: toxicity, cell-based
[8] = test system: Human immunodeficiency virus 1; assay: Antiviral activity against HIV-1 harboring RT K103N mutant infected in human MT4 cells assessed as protection against virus-induced cytopathic effect by MTT assay; type: functional, organism-based; settings: Human immunodeficiency virus 1, MT4
[9] = test system: Human immunodeficiency virus 1; assay: Antiviral activity against HIV-1 harboring RT F227L/V106A mutant infected in human MT4 cells assessed as protection against virus-induced cytopathic effect by MTT assay; type: functional, organism-based; settings: Human immunodeficiency virus 1, MT4
[10] = target: Human immunodeficiency virus type 1 reverse transcriptase (Human immunodeficiency virus 1, UniProt Q72547); assay: Inhibition of wild-type HIV-1 reverse transcriptase incubated for 1 hr in presence of biotin-dUTP by ELISA
[11] = test system: Human immunodeficiency virus 1; assay: Antiviral activity against wild-type HIV-1 IIIB infected in human MT4 cells assessed as protection against virus-induced cytopathic effect by MTT assay; type: functional, organism-based; settings: Human immunodeficiency virus 1, IIIB

Compound | EC50 [1] | selectivity ratio [2] | EC50 [3] | EC50 [4] | EC50 [5] | EC50 [6] | CC50 [7] | EC50 [8] | EC50 [9] | IC50 [10] | EC50 [11]
Cc1cc(C#N)cc(C)c1Oc1cc(-c2cccs2)nc(NC2CCN(Cc3ccc(C(N)=O)cc3)CC2)n1 | 399 nM | 4310 | 44.4 nM | 30.5 nM | 36.1 nM | 20.2 nM | 19300 nM | 6.68 nM | 63.4 nM | 299 nM | 4.48 nM
Cc1cc(C#N)cc(C)c1Oc1cc(-c2ccco2)nc(NC2CCN(Cc3ccc(S(C)(=O)=O)cc3)CC2)n1 |  | 3640 |  |  |  |  | 20700 nM |  |  |  | 5.68 nM
O=C1Nc2ccc(Cl)cc2[C@@](C#CC2CC2)(C(F)(F)F)O1 [EFAVIRENZ] |  |  | 396 nM |  | 8.82 nM | 28.9 nM | > 6340 nM |  | 261 nM |  | 3.67 nM
Cc1cc(C#N)cc(C)c1Oc1cc(-c2cccs2)nc(NC2CCN(Cc3ccc(S(N)(=O)=O)cc3)CC2)n1 |  | 2320 |  |  |  |  | 24600 nM |  |  |  | 10.6 nM
Cc1cc(C#N)cc(C)c1Oc1cc(-c2cccnc2)nc(NC2CCN(Cc3ccc(C(N)=O)cc3)CC2)n1 | 1420 nM | 4760 | 37.6 nM | 15.3 nM | 9.6 nM | 35.6 nM | 17200 nM | 11.2 nM | 106 nM | 428 nM | 3.61 nM
Cc1cc(C#N)cc(C)c1Oc1cc(-c2ccncc2)nc(NC2CCN(Cc3ccc(C(N)=O)cc3)CC2)n1 |  | 2870 |  |  |  |  | 21200 nM |  |  |  | 7.39 nM
Cc1cc(C#N)cc(C)c1Oc1cc(-c2ccoc2)nc(NC2CCN(Cc3ccc(C(N)=O)cc3)CC2)n1 |  | 3610 |  |  |  |  | 19800 nM |  |  |  | 5.49 nM
Cc1cc(C#N)cc(C)c1Oc1cc(-c2cccnc2)nc(NC2CCN(Cc3ccc(S(C)(=O)=O)cc3)CC2)n1 | 799 nM | 5000 | 36.6 nM | 21.9 nM | 26.1 nM | 58.5 nM | 20600 nM | 9.01 nM | 147 nM | 607 nM | 4.12 nM
Cc1cc(C#N)cc(C)c1Oc1cc(-c2ccsc2)nc(NC2CCN(Cc3ccc(S(N)(=O)=O)cc3)CC2)n1 | 311 nM | 3330 | 46.4 nM | 37.1 nM | 42.4 nM | 9.83 nM | 14800 nM | 4.61 nM | 61.6 nM | 236 nM | 4.45 nM
Cc1cc(C#N)cc(C)c1Oc1cc(-c2ccco2)nc(NC2CCN(Cc3ccc(S(N)(=O)=O)cc3)CC2)n1 |  | 2900 |  |  |  |  | 22800 nM |  |  |  | 7.85 nM
Cc1cc(C#N)cc(C)c1Oc1cc(-c2ccccc2)nc(NC2CCN(Cc3ccc(C(N)=O)cc3)CC2)n1 |  | 3710 |  |  |  |  | 23100 nM |  |  |  | 6.23 nM
Cc1cc(C#N)cc(C)c1Oc1cc(-c2cccnc2)nc(NC2CCN(Cc3ccc(S(N)(=O)=O)cc3)CC2)n1 | 494 nM | 4500 | 36.5 nM | 26 nM | 21.1 nM | 31.2 nM | 18200 nM | 13.1 nM | 105 nM | 461 nM | 4.04 nM
Cc1ccnc2c1NC(=O)c1cccnc1N2C1CC1 [NEVIRAPINE] | > 15000 nM | > 73 | > 15000 nM | 9210 nM | 363 nM | 3130 nM | > 15000 nM | 8250 nM | > 15000 nM |  | 
Cc1cc(C#N)cc(C)c1Oc1cc(-c2ccoc2)nc(NC2CCN(Cc3ccc(S(C)(=O)=O)cc3)CC2)n1 |  | 4060 |  |  |  |  | 22600 nM |  |  |  | 5.56 nM
Cc1cc(C#N)cc(C)c1Oc1cc(-c2ccccc2)nc(NC2CCN(Cc3ccc(S(N)(=O)=O)cc3)CC2)n1 |  | 3000 |  |  |  |  | 18000 nM |  |  |  | 6.01 nM
Cc1cc(C#N)cc(C)c1Oc1cc(-c2ccsc2)nc(NC2CCN(Cc3ccc(C(N)=O)cc3)CC2)n1 |  | 4680 |  |  |  |  | 23700 nM |  |  |  | 5.06 nM
Cc1cc(C#N)cc(C)c1Oc1cc(-c2cncnc2)nc(NC2CCN(Cc3ccc(S(C)(=O)=O)cc3)CC2)n1 |  | 16100 |  |  |  |  | 108000 nM |  |  |  | 6.72 nM
Cc1cc(C#N)cc(C)c1Oc1cc(-c2ccncc2)nc(NC2CCN(Cc3ccc(S(C)(=O)=O)cc3)CC2)n1 | 2350 nM | 6460 | 61.5 nM | 50.9 nM | 17.8 nM | 58.3 nM | 26300 nM | 10.1 nM | 107 nM | 520 nM | 4.07 nM
Cc1cc(C#N)cc(C)c1Oc1cc(-c2ccsc2)nc(NC2CCN(Cc3ccc(S(C)(=O)=O)cc3)CC2)n1 |  | > 1310 |  |  |  |  | > 219000 nM |  |  |  | 167 nM
Cc1cc(C#N)cc(C)c1Oc1nc(Nc2ccc(C#N)cc2)nc(N)c1Br [ETRAVIRINE] | 32.3 nM |  | 30.5 nM |  | 14.9 nM |  | > 4590 nM |  |  |  | 
Cc1cc(C#N)cc(C)c1Oc1cc(-c2ccoc2)nc(NC2CCN(Cc3ccc(S(N)(=O)=O)cc3)CC2)n1 |  | 3150 |  |  |  |  | 29500 nM |  |  |  | 9.36 nM
Cc1cc(C#N)cc(C)c1Oc1cc(-c2cncnc2)nc(NC2CCN(Cc3ccc(S(N)(=O)=O)cc3)CC2)n1 | 916 nM | 25400 | 55 nM | 26 nM | 34.5 nM | 39.8 nM | 109000 nM | 13 nM | 63.4 nM | 733 nM | 4.29 nM
Cc1cc(C#N)cc(C)c1Oc1cc(-c2cccs2)nc(NC2CCN(Cc3ccc(S(C)(=O)=O)cc3)CC2)n1 |  | 3000 |  |  |  |  | 16600 nM |  |  |  | 5.53 nM
Cc1cc(C#N)cc(C)c1Oc1cc(-c2ccco2)nc(NC2CCN(Cc3ccc(C(N)=O)cc3)CC2)n1 |  | 1550 |  |  |  |  | 24000 nM |  |  |  | 15.5 nM
Cc1cc(C#N)cc(C)c1Oc1cc(-c2cncnc2)nc(NC2CCN(Cc3ccc(C(N)=O)cc3)CC2)n1 | 1060 nM | 10100 | 35.3 nM | 24.6 nM | 29 nM | 76.8 nM | 41600 nM | 10.2 nM | 279 nM | 601 nM | 4.11 nM
Cc1cc(C#N)cc(C)c1Oc1cc(-c2ccccc2)nc(NC2CCN(Cc3ccc(S(C)(=O)=O)cc3)CC2)n1 | 229 nM | 2670 | 38 nM | 27.7 nM | 32.5 nM | 11.4 nM | 12500 nM | 6.82 nM | 26 nM | 231 nM | 4.68 nM
Cc1cc(C#N)cc(C)c1Oc1cc(-c2ccncc2)nc(NC2CCN(Cc3ccc(S(N)(=O)=O)cc3)CC2)n1 | 1210 nM | 5080 | 58.6 nM | 43.4 nM | 14.8 nM | 99.7 nM | 18400 nM | 10.6 nM | 72.6 nM | 507 nM | 3.62 nM
